Legend:
[1] = Contact angle of test oil on coated watch-making surfaces (epilame effect); assay type: physicochemical; details: for contact angle of the gold-plated brass part with the test oil: molecule alone at 10^−3 M, soaking 30 min; for contact angle test oil: molecule alone 10^−3 M in IPA, soaking 5 min
Method: (§1) The epilame effect is conventionally evaluated by measuring the contact angle of the lubricants or of a test fluid (water, test liquids NSSC test) on the surface of the component.
The increased epilame effect permitted by the composition of the invention must be such that this contact angle with a watch oil is greater than 30°, preferably 35°, even more preferably 40°, as such an angle corresponds to very high epilame efficacy (see Renaud 1956, Osowiecki 1962 and Massin 1971).
(§2) Deposit • Place the watch part or parts in a container with an adapted shape, • Cover the part or parts with coating solution (thiol, BP or BP/thiol-PFPE mixture), • Incubate between 5 minutes and 360 minutes, • Eliminate the supernatant—remove the part, • The part is drip dried (centrifugation).
Dehydration—Rinsing • The part which received the deposit is placed in an oven at 120° C. for a period ranging from 6 to 15 h (only for rubies and silicon), • The part is brought back to room temperature then immersed in IPA under ultrasound for 2 minutes, • The part is dried under a stream of hot air. […]
The lipophobic effect was evaluated by measuring the contact angles of a test oil having surface tension of 33 mN/m on different surfaces. […]
In accordance with the reference articles in the watch-making literature (Renaud 1956, Osowiecki 1962 and Massin 1971), an angle of over 40° with a watch lubricant corresponds to very high epilame efficacy. […]
On the basis of the kinetics of molecule I.1, the following parameters were used to test the four other thiol-PF and thiol-PFPE molecules (I.2, I.3, I.4, I.5): • Concentration: 10^−3 M for each compound I.1 to I.5 • Solvent: Isopropyl alcohol (IPA) or Biosane T212 (MMCC) • Soaking Time: 30 minutes • Rinsing time: 2 minutes under ultrasound • Drying: hot air
Evaluation of functional properties was carried out by measuring the contact angles between the surface of the watch-making component and the drop of watch-making oil. It is noticeable that the concentration of 10^−3 M gives results that comply with the desired epilame effect (angle greater than 30°) for all molecules I.1 to I.5.
(§3) The properties of thiol and bisphosphonate molecules in isolation were measured on the surfaces of steel and gold-plated substrates using solutions at 10^−3 M and in isopropanol in accordance with the protocol described in example 3 above, with a soaking time of 5 minutes.

[2] = Contact angle of water drops on coated watch-making surfaces; assay type: physicochemical; details: molecule alone 10^−3 M in IPA, soaking 5 min
Method: as §1, §2
Dehydration—Rinsing • The part which received the deposit is placed in an oven at 120° C. for a period ranging from 6 to 15 h (only for rubies and silicon), • The part is brought back to room temperature then immersed in IPA under ultrasound for 2 minutes, • The part is dried under a stream of hot air.
Different surfaces were treated with solutions of thiol I.3 and BP II.1 molecules. […]
According to the epilame method described in paragraphs 3 and 5.1, the materials were treated by the mixture of the thiol molecule I.3. with the BP molecule II.1. dissolved in IPA. The contact angles were measured before and after treatment of the surface. […]
as §3

Structure (SMILES)	contact angle of the gold-plated brass part with the test oil ([1]; solvent IPA) [°]	contact angle of the gold-plated brass part with the test oil ([1]; solvent MMCC (Biosane T212)) [°]	contact angle H2O ([2]; Au (gold-plated brass)) [°]	contact angle H2O ([2]; Steel) [°]	ranking of contact angles among the molecules [1]	contact angle test oil ([1]; Au (gold-plated brass)) [°]	contact angle test oil ([1]; Steel) [°]
O=C(NCCS)C(F)(F)C(F)(F)C(F)(F)C(F)(F)C(F)(F)C(F)(F)C(F)(F)F [I.5]	67.6 ± 3.6	49.5 ± 2.5					
O=C(NCCCCCCS)C(F)(OC(F)(F)C(F)(OC(F)(F)C(F)(OC(F)(F)C(F)(OC(F)(F)C(F)(OC(F)(F)C(F)(F)C(F)(F)F)C(F)(F)F)C(F)(F)F)C(F)(F)F)C(F)(F)F)C(F)(F)F (stereo not drawn) [I.3]	75.7 ± 6	63.8 ± 2.8	96.4	70.2	highest	69.0	33.5
